Where two headings read alike, the source gives them in different places.
Key:
Assay type in all cases: cell-based
RSV A2 = test: RSV NHBE EC50 (RSV A2 antiviral assay in normal human bronchial epithelial cells); details: NHBE cells, RSV A2, 4 days, read-out: RSV NHBE EC50
DENV2 replicon = test: DENV-2 Huh-7 Rep EC50 (replicon luminescence); details: read-out: DENV-2 Huh-7 Rep EC50
Method: In 384 well plates (Greiner, Cat #781091), compounds were acoustically transferred at 200 nl per well in a 8 compound (4 replicates) or 40 compound dose response format (3 replicates). For all plates tested, Balapiravir, GS-5734 and NITD008 were included as positive inhibition controls alongside 0% inhibition, DMSO-only negative control wells. Following compound addition, Huh-7 cells containing the DENV2 replicon construct were harvested following standard cell culture procedures and were adjusted to a concentration of 1.25E5 cells/mL in cell culture media composed of cDMEM without genticin. 40 μL of the cell stock was then added to each well for a final cell density of 5,000 cells/well. Cell and compound mixtures were incubated at 37° C./5% CO2 for 48 hours. Prior to harvesting cells, EnduRen Live Cell Substrate (Promega, Cat #E6481) was prepared by suspending 3.4 mg into 100 uL of DMSO to generate a 60 mM stock solution. The stock solution was then diluted 1:200 in pre-warmed cDMEM and 10 uL of this diluted solution was added to each well of the 384 well plates. Plates were then centrifuged at 500 rpm briefly and were placed on a plate shaker for 2 min. Following mixing, plates were incubated at […] for 1.5 hours prior to measuring luminescence on an Envision luminometer.

RSV strain A2 = test: RSV HEp-2 EC50 (infectious cytopathic cell protection assay); details: HEp-2 cells, RSV A2, 4 days, read-out: RSV HEp-2 EC50
Method in brief: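 HEp-2 cells mixed with titered RSV A2 at 50,000 cells/ml were added to plates holding 3-fold serial compound dilutions in DMSO, then incubated 4 days at 37° C. Cytoprotection was read as cell viability by CellTiter-Glo luminescence and converted to percent inhibition against 0% and 100% inhibition controls.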

HRV16 = HRV16 HELA EC50 (cytopathic effect in H1-HeLa cells)
Method: H1-HeLa cells, cultured in complete DMEM medium containing 10% heat-inactivated FBS and 1% Penicillin/Streptomycin, were seeded in 96 well plates at 3000 cells/well one day prior to compound dosing and infection. The antiviral activity of each compound was measured in triplicate. Compounds were added directly to the cell cultures in serial 3-fold dilutions using the HP300 digital dispenser (Hewlett Packard, Palo Alto, CA) immediately prior to infection. The plates were transferred to BSL-2 containment and the appropriate dilution of virus stock, previously determined by titration and prepared in cell culture media, was added to test plates containing cells and serially diluted compounds. Each plate included 6 wells of infected untreated cells and 6 wells of uninfected cells that served as 0% and 100% virus inhibition control, respectively. Following the infection, test plates were incubated for 96 h in a tissue culture incubator set to 33° C./5% CO2. Following incubation, the H1-HeLa cells were removed from incubation and allowed to equilibrate to 25° C. Cell viability was determined by removing 100 μL of culture medium and adding 100 μL of Cell-Titer Glo viability reagent. The mixtures were incubated on a shaker for 10 minutes at 25° C., and the luminescence signal was quantified on an Envision luminescence plate reader.

[1] = human respiratory syncytial virus, NHBE, 96 h
[2] = Dengue virus, DENV2, Huh-7, 48 h, Huh-7 replicon cells, 48 hours
[3] = human respiratory syncytial virus, HEp-2, 96 h
[4] = 96 h, H1-HeLa cells, 33° C., read-out: HRV16 HELA EC50
[5] = human respiratory syncytial virus, 96 h
[6] = H1-HeLa cells, 96 h, 33° C.; read-out: HRV16 HELA EC50

Structure (SMILES)	EC50 (RSV A2; [1]) [nM]	EC50 (DENV2 replicon; [2]) [nM]	EC50 (RSV strain A2; [3]) [nM]	EC50 (HRV16; [4]) [nM]	EC50 (RSV A2; [5]) [nM]	EC50 (DENV2 replicon; Dengue virus, DENV2, Huh-7, 48 h) [nM]	EC50 (RSV strain A2; [5]) [nM]	EC50 (HRV16; [6]) [nM]	EC50 (RSV A2) [nM]	EC50 (DENV2 replicon; Huh-7 replicon cells, 48 hours) [nM]	EC50 (RSV strain A2) [nM]
CCC(CC)OC(=O)[C@H](CC)NP(=O)(OC[C@@]1(C#N)O[C@@H](c2ccc3c(N)ncnn23)[C@H](O)[C@@H]1O)Oc1ccccc1 (mixture of isomers) [Example 115, (2S)-pentan-3-yl 2-(((((2R,3S,4R,5S)-5-(4-aminopyrrolo[2,1-f][1,2,4]triazin-7-yl)-2-cyano-3,4-dihydroxytetrahydrofuran-2-yl)methoxy)(phenoxy)phosphoryl)amino)butanoate]	1550	> 50000	8660	10300							
CC(C)C[C@H](NP(=O)(OC[C@@]1(C#N)O[C@@H](c2ccc3c(N)ncnn23)[C@H](O)[C@@H]1O)Oc1ccccc1)C(=O)OCC1CC1 (mixture of isomers) [Example 130, (2S)-cyclopropylmethyl 2-(((((2R,3S,4R,5S)-5-(4-aminopyrrolo[2,1-f][1,2,4]triazin-7-yl)-2-cyano-3,4-dihydroxytetrahydrofuran-2-yl)methoxy)(phenoxy)phosphoryl)amino)-4-methylpentanoate]	438	> 100000	3590	7300							
C[C@H](NP(=O)(OC[C@@]1(C#N)O[C@@H](c2ccc3c(N)ncnn23)[C@H](O)[C@@H]1O)Oc1ccccc1)C(=O)O[C@@H]1CCNC1 (mixture of isomers) [Example 137, (2S)—(R)-pyrrolidin-3-yl 2-(((((2R,3S,4R,5S)-5-(4-aminopyrrolo[2,1-f][1,2,4]triazin-7-yl)-2-cyano-3,4-dihydroxytetrahydrofuran-2-yl)methoxy)(phenoxy)phosphoryl)amino)propanoate]	> 5000	> 50000	3690	27000							
C[C@H](NP(=O)(OC[C@@]1(C#N)O[C@@H](c2ccc3c(N)ncnn23)[C@H](O)[C@@H]1O)Oc1ccccc1)C(=O)O[C@H]1CC[C@H](C)CC1 (mixture of isomers) [Example 142, (2S)-(1r,4S)-4-methylcyclohexyl 2-(((((2R,3S,4R,5S)-5-(4-aminopyrrolo[2,1-f][1,2,4]triazin-7-yl)-2-cyano-3,4-dihydroxytetrahydrofuran-2-yl)methoxy)(phenoxy)phosphoryl)amino)propanoate]	61	12200	251	164							
C[C@H](NP(=O)(OC[C@@]1(C#N)O[C@@H](c2ccc3c(N)ncnn23)[C@H](O)[C@@H]1O)Oc1ccccc1)C(=O)OC1CCNCC1 (mixture of isomers) [Example 145, (2S)-piperidin-4-yl 2-(((((2R,3S,4R,5S)-5-(4-aminopyrrolo[2,1-f][1,2,4]triazin-7-yl)-2-cyano-3,4-dihydroxytetrahydrofuran-2-yl)methoxy)(phenoxy)phosphoryl)amino)propanoate]	> 5000	> 100000	2900	46200							
CC(NP(=O)(OC[C@@]1(C#N)O[C@@H](c2ccc3c(N)ncnn23)[C@H](O)[C@@H]1O)Oc1ccccc1)C(=O)O[C@H]1CCNC1=O (mixture of isomers) [Example 153, (S)-2-oxopyrrolidin-3-yl ((((2R,3S,4R,5S)-5-(4-aminopyrrolo[2,1-f][1,2,4]triazin-7-yl)-2-cyano-3,4-dihydroxytetrahydrofuran-2-yl)methoxy)(phenoxy)phosphoryl)alaninate]	> 5000	> 100000	7140	12500							
C[C@H](NP(=O)(OC[C@@]1(C#N)O[C@@H](c2ccc3c(N)ncnn23)[C@H](O)[C@@H]1O)Oc1ccccc1)C(=O)OC1CCCC(C)(C)C1 (mixture of isomers) [Example 154, 3,3-dimethylcyclohexyl ((((2R,3S,4R,5S)-5-(4-aminopyrrolo[2,1-f][1,2,4]triazin-7-yl)-2-cyano-3,4-dihydroxytetrahydrofuran-2-yl)methoxy)(phenoxy)phosphoryl)-L-alaninate]	311	50700	2700	1950							
C[C@H](NP(=O)(OC[C@@]1(C#N)O[C@@H](c2ccc3c(N)ncnn23)[C@H](O)[C@@H]1O)Oc1ccccc1)C(=O)O[C@H]1CCCC[C@@H]1C (mixture of isomers) [Example 155, trans-2-methylcyclohexyl ((((2R,3S,4R,5S)-5-(4-aminopyrrolo[2,1-f][1,2,4]triazin-7-yl)-2-cyano-3,4-dihydroxytetrahydrofuran-2-yl)methoxy)(phenoxy)phosphoryl)-L-alaninate]	1580	84400	4320	4200							
C[C@H](NP(=O)(OC[C@@]1(C#N)O[C@@H](c2ccc3c(N)ncnn23)[C@H](O)[C@@H]1O)Oc1ccccc1)C(=O)OC1CCC(F)(F)CC1 (mixture of isomers) [Example 174, 4,4-difluorocyclohexyl ((((2R,3S,4R,5S)-5-(4-aminopyrrolo[2,1-f][1,2,4]triazin-7-yl)-2-cyano-3,4-dihydroxytetrahydrofuran-2-yl)methoxy)(phenoxy)phosphoryl)-L-alaninate]	1390	33800	257	748							
CCC(CC)COC(=O)[C@H](C)NP(=O)(N[C@@H](C)C(=O)OC)OC[C@@]1(C#N)O[C@@H](c2ccc3c(N)ncnn23)[C@H](O)[C@@H]1O (mixture of isomers) [Example 221, 2-Ethylbutyl ((((2R,3S,4R,5S)-5-(4-aminopyrrolo[2,1-f][1,2,4]triazin-7-yl)-2-cyano-3,4-dihydroxytetrahydrofuran-2-yl)methoxy)(((S)-1-methoxy-1-oxopropan-2-yl)amino)phosphoryl)-L-alaninate]					> 1050	> 100000	1180	8490			
CC(C)OC(=O)[C@H](C)N[P@](=O)(OC[C@@]1(C#N)O[C@@H](c2ccc3c(N)ncnn23)[C@H](O)[C@@H]1O)Oc1ccccc1 (single isomer, unassigned) [Example 1]	879	> 50000	342	966							
CC(C)(C)C(=O)OCCNP(=O)(OCC1(C#N)OC(c2ccc3c(N)ncnn23)C(O)C1O)Oc1ccccc1 (single isomer, unassigned) [Example 12]								1930	29	> 50000	244
C[C@H](N[P@@](=O)(OC[C@@]1(C#N)O[C@@H](c2ccc3c(N)ncnn23)[C@H](O)[C@@H]1O)Oc1ccccc1)C(=O)O[C@H]1CC[C@H](C(F)(F)F)CC1 (single isomer, unassigned) [Example 17]	88	53700	308	489							
CCCOC(=O)C(C)NP(=O)(OCC1(C#N)OC(c2ccc3c(N)ncnn23)C(O)C1O)Oc1ccccc1 (single isomer, unassigned) [Example 46]								487	393	> 20800	82
CCCOC(=O)C(C)NP(=O)(OCC1(C#N)OC(c2ccc3c(N)ncnn23)C(O)C1O)Oc1ccccc1 (single isomer, unassigned) [Example 47]								560	162	9190	51
C[C@H](NP(=O)(OC[C@@]1(C#N)O[C@@H](c2ccc3c(N)ncnn23)[C@H](O)[C@@H]1O)Oc1ccccc1)C(=O)OC1CCC1 (single isomer, unassigned) [Example 50]	498	6920	44	464							
